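Cultured in 96-well plates, cells were exposed to test compound for 48 hours across five concentrations. GI50: concentration for 50% inhibition of growth. At the TGI there is no net growth.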
Key:
Assay in all cases: DTP human tumour cell line panel, 48 h
CCRF-CEM leukemia = tested on: CCRF-CEM leukemia
SK-MEL-28 melanoma = tested on: SK-MEL-28 melanoma
U251 CNS = tested on: U251 CNS
NCI-H23 lung = tested on: NCI-H23 lung
UACC-257 melanoma = tested on: UACC-257 melanoma
EKVX NSCLC = tested on: EKVX NSCLC
A549 NSCLC = tested on: A549 NSCLC
IGROV1 ovarian = tested on: IGROV1 ovarian
HOP-92 NSCLC = tested on: HOP-92 NSCLC
CAKI-1 renal = tested on: CAKI-1 renal
HS 578T breast = tested on: HS 578T breast
SR leukemia = tested on: SR leukemia
TK-10 renal = tested on: TK-10 renal
T-47D breast = tested on: T-47D breast
OVCAR-4 ovarian = tested on: OVCAR-4 ovarian
PC-3 prostate = tested on: PC-3 prostate
RPMI-8226 leukemia = tested on: RPMI-8226 leukemia
ACHN renal = tested on: ACHN renal
SK-OV-3 ovarian = tested on: SK-OV-3 ovarian
HCT-15 colon = tested on: HCT-15 colon
SN12C renal = tested on: SN12C renal
RXF 393 renal = tested on: RXF 393 renal
COLO 205 colon = tested on: COLO 205 colon
K-562 leukemia = tested on: K-562 leukemia
SF-539 CNS = tested on: SF-539 CNS
KM12 colon = tested on: KM12 colon
SNB-75 CNS = tested on: SNB-75 CNS
MOLT-4 leukemia = tested on: MOLT-4 leukemia
UO-31 renal = tested on: UO-31 renal
HCC-2998 colon = tested on: HCC-2998 colon
HT29 colon = tested on: HT29 colon
LOX IMVI melanoma = tested on: LOX IMVI melanoma
HL-60(TB) leukemia = tested on: HL-60(TB) leukemia
MDA-MB-435 = tested on: MDA-MB-435
SF-268 CNS = tested on: SF-268 CNS
MDA-MB-231 breast = tested on: MDA-MB-231 breast
A498 renal = tested on: A498 renal
NCI-H460 lung = tested on: NCI-H460 lung
SW-620 colon = tested on: SW-620 colon
DU-145 prostate = tested on: DU-145 prostate
786-0 renal = tested on: 786-0 renal
NCI/ADR-RES ovarian = tested on: NCI/ADR-RES ovarian
BT-549 breast = tested on: BT-549 breast
MALME-3M melanoma = tested on: MALME-3M melanoma
MCF7 breast = tested on: MCF7 breast
SNB-19 CNS = tested on: SNB-19 CNS
HOP-62 NSCLC = tested on: HOP-62 NSCLC
OVCAR-5 ovarian = tested on: OVCAR-5 ovarian
NCI-H226 lung = tested on: NCI-H226 lung
OVCAR-8 ovarian = tested on: OVCAR-8 ovarian
HCT-116 colon = tested on: HCT-116 colon
UACC-62 melanoma = tested on: UACC-62 melanoma
M14 melanoma = tested on: M14 melanoma
OVCAR-3 ovarian = tested on: OVCAR-3 ovarian
SK-MEL-5 melanoma = tested on: SK-MEL-5 melanoma
SF-295 CNS = tested on: SF-295 CNS
NCI-H522 lung = tested on: NCI-H522 lung
SK-MEL-2 melanoma = tested on: SK-MEL-2 melanoma

Molecule `CCn1cc(C2NC(=O)c3ccccc3N2)c2cccc(C)c21` (stereo not given) has a GI50 (CCRF-CEM leukemia) of 324 nM, a TGI (CCRF-CEM leukemia) of 96.9 µM and a GI50 (SK-MEL-28 melanoma) of 2040 nM. The TGI (SK-MEL-28 melanoma) was > 100 µM, the GI50 (U251 CNS) was 456 nM and the TGI (U251 CNS) was 13.9 µM. For the same molecule, the GI50 (NCI-H23 lung) was 844 nM, the TGI (NCI-H23 lung) was > 100 µM and the GI50 (UACC-257 melanoma) was 60 µM. For the same molecule, the TGI (UACC-257 melanoma) was > 100 µM, the GI50 (EKVX NSCLC) was 621 nM and the TGI (EKVX NSCLC) was > 100 µM. The GI50 (A549 NSCLC) was 653 nM, the TGI (A549 NSCLC) was 14.7 µM and the GI50 (IGROV1 ovarian) was 473 nM. The TGI (IGROV1 ovarian) was > 100 µM, the GI50 (HOP-92 NSCLC) was 4.79 µM and the TGI (HOP-92 NSCLC) was > 78.7 µM. For the same molecule, the GI50 (CAKI-1 renal) was 289 nM, the TGI (CAKI-1 renal) was 20.4 µM and the GI50 (HS 578T breast) was 255 nM. The TGI (HS 578T breast) was 1950 nM, the GI50 (SR leukemia) was 261 nM and the TGI (SR leukemia) was > 100 µM. For the same molecule, the GI50 (TK-10 renal) was 3000 nM, the TGI (TK-10 renal) was > 40.9 µM and the GI50 (T-47D breast) was 556 nM. The TGI (T-47D breast) was > 100 µM, the GI50 (OVCAR-4 ovarian) was 1490 nM and the TGI (OVCAR-4 ovarian) was 13.1 µM. For the same molecule, the GI50 (PC-3 prostate) was 443 nM, the TGI (PC-3 prostate) was > 100 µM and the GI50 (RPMI-8226 leukemia) was 381 nM. For the same molecule, the TGI (RPMI-8226 leukemia) was > 100 µM, the GI50 (ACHN renal) was 685 nM and the TGI (ACHN renal) was 23.1 µM. The GI50 (SK-OV-3 ovarian) was 522 nM, the TGI (SK-OV-3 ovarian) was > 86.1 µM and the GI50 (HCT-15 colon) was 360 nM. For the same molecule, the TGI (HCT-15 colon) was 24.5 µM, the GI50 (SN12C renal) was 579 nM and the TGI (SN12C renal) was 17 µM. It also gave a GI50 (RXF 393 renal) of 199 nM, a TGI (RXF 393 renal) of 658 nM and a GI50 (COLO 205 colon) of 485 nM. The TGI (COLO 205 colon) was 9.88 µM, the GI50 (K-562 leukemia) was 224 nM and the TGI (K-562 leukemia) was > 100 µM. The GI50 (SF-539 CNS) was 275 nM, the TGI (SF-539 CNS) was 1340 nM and the GI50 (KM12 colon) was 389 nM. The TGI (KM12 colon) was 22.2 µM, the GI50 (SNB-75 CNS) was 184 nM and the TGI (SNB-75 CNS) was 829 nM. The GI50 (MOLT-4 leukemia) was 531 nM, the TGI (MOLT-4 leukemia) was > 100 µM and the GI50 (UO-31 renal) was 631 nM. For the same molecule, the TGI (UO-31 renal) was 16.4 µM, the GI50 (HCC-2998 colon) was 1080 nM and the TGI (HCC-2998 colon) was 8.22 µM. It also gave a GI50 (HT29 colon) of 331 nM, a TGI (HT29 colon) of 4.29 µM and a GI50 (LOX IMVI melanoma) of 571 nM. The TGI (LOX IMVI melanoma) was 13.7 µM, the GI50 (HL-60(TB) leukemia) was 310 nM and the TGI (HL-60(TB) leukemia) was 1060 nM. The GI50 (MDA-MB-435) was 142 nM, the TGI (MDA-MB-435) was 357 nM and the GI50 (SF-268 CNS) was 1360 nM. For the same molecule, the TGI (SF-268 CNS) was > 68 µM, the GI50 (MDA-MB-231 breast) was 991 nM and the TGI (MDA-MB-231 breast) was 12 µM. For the same molecule, the GI50 (A498 renal) was 172 nM, the TGI (A498 renal) was 947 nM and the GI50 (NCI-H460 lung) was 346 nM. The TGI (NCI-H460 lung) was 1460 nM, the GI50 (SW-620 colon) was 337 nM and the TGI (SW-620 colon) was > 100 µM. It also gave a GI50 (DU-145 prostate) of 430 nM, a TGI (DU-145 prostate) of 27.9 µM and a GI50 (786-0 renal) of 539 nM. The TGI (786-0 renal) was 22.3 µM, the GI50 (NCI/ADR-RES ovarian) was 319 nM and the TGI (NCI/ADR-RES ovarian) was 4.57 µM. For the same molecule, the GI50 (BT-549 breast) was 901 nM, the TGI (BT-549 breast) was 17.6 µM and the GI50 (MALME-3M melanoma) was 449 nM. For the same molecule, the TGI (MALME-3M melanoma) was > 100 µM, the GI50 (MCF7 breast) was 298 nM and the TGI (MCF7 breast) was > 100 µM. The GI50 (SNB-19 CNS) was 456 nM, the TGI (SNB-19 CNS) was > 100 µM and the GI50 (HOP-62 NSCLC) was 517 nM. The TGI (HOP-62 NSCLC) was 34.2 µM, the GI50 (OVCAR-5 ovarian) was 915 nM and the TGI (OVCAR-5 ovarian) was > 91.6 µM. For the same molecule, the GI50 (NCI-H226 lung) was 572 nM, the TGI (NCI-H226 lung) was 13.2 µM and the GI50 (OVCAR-8 ovarian) was 617 nM. It also gave a TGI (OVCAR-8 ovarian) of 22.6 µM, a GI50 (HCT-116 colon) of 409 nM and a TGI (HCT-116 colon) of 11.5 µM. For the same molecule, the GI50 (UACC-62 melanoma) was 311 nM, the TGI (UACC-62 melanoma) was > 100 µM and the GI50 (M14 melanoma) was 298 nM. The TGI (M14 melanoma) was > 100 µM, the GI50 (OVCAR-3 ovarian) was 275 nM and the TGI (OVCAR-3 ovarian) was 1020 nM. It also gave a GI50 (SK-MEL-5 melanoma) of 338 nM, a TGI (SK-MEL-5 melanoma) of 5.87 µM and a GI50 (SF-295 CNS) of 293 nM. For the same molecule, the GI50 (NCI-H522 lung) was 265 nM, the TGI (NCI-H522 lung) was 17.6 µM and the GI50 (SK-MEL-2 melanoma) was 631 nM. For the same molecule, the TGI (SK-MEL-2 melanoma) was > 100 µM.

From PubChem BioAssay (NCI)
